Consider 13 molecules from patent publication US8119681B2, “2-[1-phenyl-5-hydroxy or methoxy-4alpha-methyl-hexahydrocyclopenta [ƒ]indazole-5-YL]ethyl phenyl derivatives as glucocorticoid receptor ligands” (Merck Sharp & Dohme Corp., priority 2006, dated 2012).

For test [1], the target named is T1, human GR (Homo sapiens, UniProt P04150).
T1 sequence (P04150 1-777): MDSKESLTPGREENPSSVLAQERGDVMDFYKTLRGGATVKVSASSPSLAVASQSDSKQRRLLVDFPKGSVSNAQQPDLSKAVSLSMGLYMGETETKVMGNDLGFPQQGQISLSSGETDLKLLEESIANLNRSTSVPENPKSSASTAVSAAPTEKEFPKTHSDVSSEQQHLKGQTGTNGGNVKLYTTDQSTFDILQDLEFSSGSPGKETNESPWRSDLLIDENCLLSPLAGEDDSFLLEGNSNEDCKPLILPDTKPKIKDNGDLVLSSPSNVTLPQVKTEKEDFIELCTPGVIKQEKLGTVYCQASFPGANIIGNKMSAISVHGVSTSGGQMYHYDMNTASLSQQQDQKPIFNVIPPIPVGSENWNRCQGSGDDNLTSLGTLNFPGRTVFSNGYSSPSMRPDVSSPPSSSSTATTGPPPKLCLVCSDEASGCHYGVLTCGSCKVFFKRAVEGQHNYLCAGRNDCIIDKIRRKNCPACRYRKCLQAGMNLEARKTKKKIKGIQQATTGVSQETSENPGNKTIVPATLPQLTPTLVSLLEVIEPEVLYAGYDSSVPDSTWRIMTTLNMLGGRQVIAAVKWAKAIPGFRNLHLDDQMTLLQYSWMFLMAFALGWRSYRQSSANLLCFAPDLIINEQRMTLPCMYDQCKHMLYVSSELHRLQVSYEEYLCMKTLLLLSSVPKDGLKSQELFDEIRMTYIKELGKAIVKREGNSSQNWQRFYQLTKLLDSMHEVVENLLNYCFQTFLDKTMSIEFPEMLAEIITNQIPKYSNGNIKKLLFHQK
Briefly: Transrepression Assay (GITAR), TNFα-β-lactamase reporter gene in U937 cells. Format: cell-based. Also noted: U937 cells contain an endogenous glucocorticoid receptor (GR); endogenous in cells; host or cells: U937 cells stably transfected with the TNF-α promoter/β-lactamase reporter only. Particulars: for pEC50: IP = inflection point, read-out: Transrepression U937 Cells GITAR IP; for GITAR > GRAMM % SEP: separation of GITAR Emax over GRAMMER Emax; for Emax: U-937. Summed up:
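Reporter readout used CCF2-AM loading for 70–90 min at room temperature after overnight (~18 h, 37 °C) PMA (5 ng/ml final) and LPS (100 ng/ml final) stimulation of compound-treated (30–45 min) TNFα-β-lactamase U937 cells expressing native GR. Activity was normalised to 100 nM dexamethasone repression.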
(In general: In a reporter assay the amount or activity of a reporter protein is the signal.)

Test [2] addresses T1, human GR. Briefly: Trans-Activation Modulation of Glucocorticoid Receptor (GRAMMER), MMTV-LUC reporter gene. The class given is cell-based. Also noted: endogenous in cells. Particulars: for Emax: A549, read-out: Transactivation A549 Cells GRAMMER Emax (%); for pEC50: Table 1, A549 cells, IP = inflection point, read-out: Transactivation A549 Cells GRAMMER IP.
[3] abbreviates: 100 nM dexamethasone = 100% activity, read-out: maximal activity in the transrepression assay.
[4] abbreviates: Table 1, U937 cells, activity repressed by 100 nM dexamethasone = 100%, read-out: Transrepression U937 Cells GITAR Emax (%).

pEC50: −log10 of the molar value.

Regarding `CC(=O)Cc1ccccc1CC[C@]1(O)CCC2=Cc3c(cnn3-c3ccc(F)cc3)C[C@@]21C` [Example 157, 1-(2-{2-[(4αS,5R)-1-(4-fluorophenyl)-5-hydroxy-4α-methyl-1,4,4α,5,6,7-hexahydrocyclopenta[f]indazol-5-yl]ethyl}phenyl)acetone], the pEC50 at human GR [1] (Table 1, U937 cells) was 6.71; on human GR [2] it was 6.62. Moreover, the “GITAR > GRAMM % SEP” value on human GR [1] (Table 1) worked out at 18%. Further, the Emax on human GR [1] (setting [3]) was 5 to 100%; at human GR [1] (setting [4]) it was 63%; at human GR [2], 45%.

Take `C[C@]12Cc3cnn(-c4ccc(F)cc4)c3C=C1CC[C@@]2(O)CCc1ccc(F)cc1C(N)=O` [Example 159, 5-fluoro-2-{2-[(4αS,5R)-1-(4-fluorophenyl)-5-hydroxy-4α-methyl-1,4,4α,5,6,7-hexahydrocyclopenta[f]indazol-5-yl]ethyl}benzamide]: the pEC50 on human GR [1] (Table 1, U937 cells) was 6.90; at human GR [2], 6.71. Also, the “GITAR > GRAMM % SEP” value at human GR [1] (Table 1) came to 36%. The Emax is 5 to 100% at human GR [1] (setting [3]), 73% on human GR [1] (setting [4]) and 37% at human GR [2].

`C[C@]12Cc3cnn(-c4ccc(F)cc4)c3C=C1CC[C@@]2(O)CCc1ccc(F)cc1C#N` [Example 163, 5-fluoro-2-{2-[(4αS,5R)-1-(4-fluorophenyl)-5-hydroxy-4α-methyl-1,4,4α,5,6,7-hexahydrocyclopenta[f]indazol-5-yl]ethyl}benzonitrile]: the pEC50 is 6.52 at human GR [1] (Table 1, U937 cells) and 6.99 on human GR [2]. In addition, the “GITAR > GRAMM % SEP” value on human GR [1] (Table 1) is listed as 23%. Further, the values for the Emax on human GR [1] (setting [3]), on human GR [1] (setting [4]) and at human GR [2] were 5 to 100%, 70% and 48%, respectively.

Consider `C[C@]12Cc3cnn(-c4ccc(F)c(F)c4)c3C=C1CC[C@@]2(O)CCc1cccc(F)c1C(N)=O` [Example 168, 2-{2-[(4α,5R)-1-(3,4-difluorophenyl)-5-hydroxy-4α-methyl-1,4,4α,5,6,7-hexahydrocyclopenta[f]indazol-5-yl]ethyl}-6-fluorobenzamide], for which the pEC50 was 7.28 at human GR [1] (Table 1, U937 cells) and 7.28 at human GR [2]. The “GITAR > GRAMM % SEP” value on human GR [1] (Table 1) is given as 19%. Also, the Emax is 5 to 100% at human GR [1] (setting [3]), 77% on human GR [1] (setting [4]) and 58% at human GR [2].

For the molecule `C[C@]12Cc3cnn(-c4ccc(F)cc4)c3C=C1CC[C@@]2(O)CCc1ccc(Cl)cc1C(N)=O` [Example 170, 5-chloro-2-{2-[(4αS,5R)-1-(4-fluorophenyl)-5-hydroxy-4α-methyl-1,4,4α,5,6,7-hexahydrocyclopenta[f]indazol-5-yl]ethyl}benzamide], the pEC50 at human GR [1] (Table 1, U937 cells) was 6.65; at human GR [2], 6.63. For the same molecule, on human GR [1] (Table 1), the “GITAR > GRAMM % SEP” value was determined as 42%. In addition, the Emax on human GR [1] (setting [3]) was 5 to 100%; on human GR [1] (setting [4]), 66%; on human GR [2], 24%.

As to `C[C@]12Cc3cnn(-c4ccc(F)c(F)c4)c3C=C1CC[C@@]2(O)CCc1ccccc1C(N)=O` [Example 172, 2-{2-[(4αS,5R)-1-(3,4-difluorophenyl)-5-hydroxy-4α-methyl-1,4,4α,5,6,7-hexahydrocyclopenta[f]indazol-5-yl]ethyl}benzamide], the pEC50 on human GR [1] (Table 1, U937 cells) was 6.86; at human GR [2] it was 6.79. Further, the “GITAR > GRAMM % SEP” value on human GR [1] (Table 1) is recorded as 36%. Further, the results for the Emax on human GR [1] (setting [3]), at human GR [1] (setting [4]) and on human GR [2] were 5 to 100%, 78% and 41%, respectively.

`Cc1ccc(C(N)=O)c(CC[C@]2(O)CCC3=Cc4c(cnn4-c4ccc(F)cc4)C[C@@]32C)c1` [Example 174, 2-{2-[(4αS,5R)-1-(4-fluorophenyl)-5-hydroxy-4α-methyl-1,4,4α,5,6,7-hexahydrocyclopenta[f]indazol-5-yl]ethyl}-4-methylbenzamide]: the pEC50 on human GR [1] (Table 1, U937 cells) was 6.74; on human GR [2], 6.83. The “GITAR > GRAMM % SEP” value on human GR [1] (Table 1) was determined as 41%. The Emax on human GR [1] (setting [3]) is 5 to 100%; on human GR [1] (setting [4]), 77%; on human GR [2] it was 36%.

For `C[C@]12Cc3cnn(-c4ccc(Cl)cc4)c3C=C1CC[C@@]2(O)CCc1cccc(F)c1C(N)=O` [Example 185, 2-{2-[(4αS,5R)-1-(4-chlorophenyl)-5-hydroxy-4α-methyl-1,4,4α,5,6,7-hexahydrocyclopenta[f]indazol-5-yl]ethyl}-6-fluorobenzamide], the pEC50 at human GR [1] (Table 1, U937 cells) was 7.23; on human GR [2] it was 6.84. Further, on human GR [1] (Table 1), the “GITAR > GRAMM % SEP” value is recorded as 41%. Further, the Emax at human GR [1] (setting [3]) was 5 to 100%; on human GR [1] (setting [4]), 80%; on human GR [2] it was 39%.

Consider `COc1cccc(CC[C@]2(O)CCC3=Cc4c(cnn4-c4ccc(F)cc4)C[C@@]32C)c1C(N)=O` [Example 189, 2-{2-[(4αS,5R)-1-(4-fluorophenyl)-5-hydroxy-4α-methyl-1,4,4α,5,6,7-hexahydrocyclopenta[f]indazol-5-yl]ethyl}-6-methoxybenzamide], for which the pEC50 was 7.64 at human GR [1] (Table 1, U937 cells) and 7.55 on human GR [2]. In addition, the “GITAR > GRAMM % SEP” value on human GR [1] (Table 1) is 31%. In addition, the Emax at human GR [1] (setting [3]) is 5 to 100%; at human GR [1] (setting [4]), 80%; at human GR [2], 49%.

On to `Cc1cccc(CC[C@]2(O)CCC3=Cc4c(cnn4-c4cccc(F)c4)C[C@@]32C)c1C(N)=O` [Example 191, 2-{2-[(4αS,5R)-1-(3-fluorophenyl)-5-hydroxy-4α-methyl-1,4,4α,5,6,7-hexahydrocyclopenta[f]indazol-5-yl]ethyl}-6-methylbenzamide], for which the pEC50 at human GR [1] (Table 1, U937 cells) is 7.48; at human GR [2], 7.26. Moreover, the “GITAR > GRAMM % SEP” value at human GR [1] (Table 1) was 29%. Besides, the Emax at human GR [1] (setting [3]) was 5 to 100%; on human GR [1] (setting [4]) it was 78%; on human GR [2], 49%.

On to `C[C@]12Cc3cnn(-c4ccc(F)cc4)c3C=C1CC[C@@]2(O)CCc1cccc(F)c1CC(N)=O` [Example 194, 2-(2-fluoro-6-{2-[(4αS,5R)-1-(4-fluorophenyl)-5-hydroxy-4α-methyl-1,4,4α,5,6,7-hexahydrocyclopenta[f]indazol-5-yl]ethyl}phenyl)acetamide], for which the pEC50 was 7.06 on human GR [1] (Table 1, U937 cells) and 7.00 at human GR [2]. Further, the “GITAR > GRAMM % SEP” value at human GR [1] (Table 1) is given as 41%. For the same molecule, the figures for the Emax on human GR [1] (setting [3]), on human GR [1] (setting [4]) and on human GR [2] were 5 to 100%, 78% and 38%, respectively.

Take `C[C@]12Cc3cnn(-c4ccc(F)cc4)c3C=C1CC[C@@]2(O)CCc1cccc(Cl)c1CC(N)=O` [Example 197, 2-(2-chloro-6-{2-[(4αS,5R)-1-(4-fluorophenyl)-5-hydroxy-4α-methyl-1,4,4α,5,6,7-hexahydrocyclopenta[f]indazol-5-yl]ethyl}phenyl)acetamide]: the pEC50 at human GR [1] (Table 1, U937 cells) is 6.86; at human GR [2], 6.60. Also, the “GITAR > GRAMM % SEP” value at human GR [1] (Table 1) is recorded as 21%. In addition, the results for the Emax at human GR [1] (setting [3]), at human GR [1] (setting [4]) and at human GR [2] were 5 to 100%, 67% and 46%, respectively.

Turning to `CCC(O)(C(N)=O)c1ccccc1CC[C@]1(O)CCC2=Cc3c(cnn3-c3ccc(F)cc3)C[C@@]21C` (stereo partly drawn) [Example 199, 2-(2-{2-[(4αS,5R)-1-(4-fluorophenyl)-5-hydroxy-4α-methyl-1,4,4α,5,6,7-hexahydrocyclopenta[f]indazol-5-yl]ethyl}phenyl)-2-hydroxybutanamide], the pEC50 is 7.11 on human GR [1] (Table 1, U937 cells) and 7.08 on human GR [2]. Also, the “GITAR > GRAMM % SEP” value on human GR [1] (Table 1) turned out to be 32%. Besides, the Emax was 5 to 100% at human GR [1] (setting [3]), 68% on human GR [1] (setting [4]) and 36% on human GR [2].
